Experimental data from patent US10441593B2, “Treatment of pain associated with dislocation of endometrium” (PREGLEM S.A., priority 2010, dated 2019).

Tested on: patients with heavy menstrual bleeding and pain
Assay: Hepatobiliary Disorders and Liver Safety analysis (Example 3)
Format: in vivo, human
Method: A double-blinded, randomized, study evaluating the effect of long term oral administration of 5 mg or 10 mg ulipristal in patients with heavy menstrual bleeding and pain. A Hepatobiliary Disorders and Liver Safety analysis was carried out for all patients. This summary table illustrates the increased number of subjects from the 3 treatment groups who had increased levels of AST, ALT and total bilirubin during the study.

[1] = Ulipristal 5 mg (n = 97), Week 5
[2] = Ulipristal 5 mg (n = 97), Week 9
[3] = Ulipristal 5 mg (n = 97), Week 13
[4] = Ulipristal 5 mg (n = 97), Week 17
[5] = Ulipristal 10 mg (n = 103), Week 5
[6] = Ulipristal 10 mg (n = 103), Week 9
[7] = Ulipristal 10 mg (n = 103), Week 13
[8] = Ulipristal 10 mg (n = 103), Week 17

CC(=O)O[C@]1(C(C)=O)CC[C@H]2[C@@H]3CCC4=CC(=O)CCC4=C3[C@@H](c3ccc(N(C)C)cc3)C[C@@]21C [Ulipristal, 17α-acetoxy-11β-[4-N,N-dimethylamino-phenyl)-19-norpregna-4,9-diene-3,20-dione]
treatment related changes in liver function tests (5 mg or 10 mg, long term oral administration): no signals of any treatment related changes in liver function tests | ALT High not CS, number (%) of subjects [1]: 4 (4.1%) | ALT Low not CS, number (%) of subjects [1]: 0 | AST High not CS, number (%) of subjects [1]: 6 (6.2%) | AST Low not CS, number (%) of subjects [1]: 0 | Total bilirubin High CS, number (%) of subjects [1]: 0 | Total bilirubin High not CS, number (%) of subjects [1]: 2 (2.1%) | Total bilirubin Low not CS, number (%) of subjects [1]: 0 | ALT High not CS, number (%) of subjects [2]: 0 | ALT Low not CS, number (%) of subjects [2]: 0 | AST High not CS, number (%) of subjects [2]: 3 (3.1%) | AST Low not CS, number (%) of subjects [2]: 0 | Total bilirubin High not CS, number (%) of subjects [2]: 3 (3.1%) | Total bilirubin Low not CS, number (%) of subjects [2]: 0 | ALT High not CS, number (%) of subjects [3]: 1 (1.0%) | ALT Low not CS, number (%) of subjects [3]: 0 | AST High not CS, number (%) of subjects [3]: 2 (2.1%) | AST Low not CS, number (%) of subjects [3]: 0 | Total bilirubin High not CS, number (%) of subjects [3]: 3 (3.1%) | Total bilirubin Low not CS, number (%) of subjects [3]: 0 | ALT High CS, number (%) of subjects [4]: 0 | ALT High not CS, number (%) of subjects [4]: 2 (2.1%) | ALT Low not CS, number (%) of subjects [4]: 0 | AST High not CS, number (%) of subjects [4]: 3 (3.1%) | AST Low not CS, number (%) of subjects [4]: 0 | Total bilirubin High not CS, number (%) of subjects [4]: 2 (2.1%) | Total bilirubin Low not CS, number (%) of subjects [4]: 0 | subjects with elevations of both AST and ALT above 2×ULN, but <3×ULN for consecutive samples (Ulipristal 5 mg group): 1 subject | ALT High not CS, number (%) of subjects [5]: 6 (5.8%) | ALT Low not CS, number (%) of subjects [5]: 0 | AST High not CS, number (%) of subjects [5]: 6 (5.8%) | AST Low not CS, number (%) of subjects [5]: 0 | Total bilirubin High CS, number (%) of subjects [5]: 0 | Total bilirubin High not CS, number (%) of subjects [5]: 3 (2.9%) | Total bilirubin Low not CS, number (%) of subjects [5]: 0 | ALT High not CS, number (%) of subjects [6]: 3 (2.9%) | ALT Low not CS, number (%) of subjects [6]: 0 | AST High not CS, number (%) of subjects [6]: 3 (2.9%) | AST Low not CS, number (%) of subjects [6]: 0 | Total bilirubin High not CS, number (%) of subjects [6]: 4 (3.9%) | Total bilirubin Low not CS, number (%) of subjects [6]: 0 | ALT High not CS, number (%) of subjects [7]: 5 (4.9%) | ALT Low not CS, number (%) of subjects [7]: 0 | AST High not CS, number (%) of subjects [7]: 4 (3.9%) | AST Low not CS, number (%) of subjects [7]: 0 | Total bilirubin High not CS, number (%) of subjects [7]: 6 (5.8%) | Total bilirubin Low not CS, number (%) of subjects [7]: 0 | ALT High CS, number (%) of subjects [8]: 0 | ALT High not CS, number (%) of subjects [8]: 4 (3.9%) | ALT Low not CS, number (%) of subjects [8]: 0 | AST High not CS, number (%) of subjects [8]: 4 (3.9%) | AST Low not CS, number (%) of subjects [8]: 0 | Total bilirubin High not CS, number (%) of subjects [8]: 2 (1.9%) | Total bilirubin Low not CS, number (%) of subjects [8]: 0 | subjects with elevations of both AST and ALT above 2×ULN, but <3×ULN for consecutive samples (Ulipristal 10 mg group): 2 subjects | liver toxicity based on Treatment Emergent Adverse Events (TEAEs) (clinical studies): no evidence of liver toxicity
